Laboratory results taken from patent US20260226417A1, “METHOD FOR INHIBITING AGING OF STEM CELLS” (ENCELL CO., LTD, priority 2023, published 2026).

Assays:
[1] = tested on: replicative senescence-induced human umbilical cord-derived mesenchymal stem cells (P18); assay: Cell proliferation by CCK-8 assay, 6 days, replicative senescence model (P18); type: cell-based; conditions: 160 μM
Method: (§1) Example 4. Validation of gut microbiota-derived metabolite candidate for senescence control Control cells (P5) and replicative senescence-induced human umbilical cord-derived mesenchymal stem cells (P18) were treated with nervonic acid (160 μM) to analyze the effects of the gut microbiota-derived metabolite having the ability to control senescence of stem cells on the proliferation of stem cells and cell size.
(§2) Specifically, control cells (p5) and replicative senescence-induced human umbilical cord-derived mesenchymal stem cells (P18) were exposed to nervonic acid (160 μM) in culture medium, followed by culture for 6 days while replacing the medium every 3 days, and cell proliferation was assessed using CCK-8 assay.

[2] = tested on: MyHC (myosin heavy chain), a marker of muscle regeneration, in muscle tissue; assay: MyHC Western blotting in muscle tissue of muscle disease mouse model after injection of treated P18 cells; type: in vivo; conditions: P18 cells treated with 160 μM for 72 hours, injected via tail vein, mdx mouse, one week after injection
Method: (§3) Specifically, the muscle disease mouse model used was C57BL/10ScSn-Dmdmdx/J (mdx mouse) , and C57BL/10J with the same genetic background was used as a control group. All experiments were conducted using mice aged 4 to 5 months. The cells to be injected were human umbilical cord-derived young mesenchymal stem cells (control group) (P5) and replicative senescence model (P18). More specifically, the replicative senescence model (P18) was treated with 160 μM nervonic acid or an equivalent amount of DMSO for 72 hours during culture at P18 and then dissociated as single cells with 0.25% Trypsin/EDTA (Gibco, MT, USA), and 5×10^4 cells per mouse were injected via the tail vein. One week after injection, both tibial muscles of the mouse model were harvested and fixed in 4% paraformaldehyde or frozen.
Example 10. Comparative analysis of muscle regeneration promotion efficacy after injection of various human tissue-derived mesenchymal stem cells treated with nervonic acid into muscle disease mouse model A replicative senescence model (P18) was treated with nervonic acid (160 μM) and then injected into a muscle disease mouse model to assess the effect of nervonic acid treatment on the therapeutic efficacy of the replicative senescence model (P18) in terms of muscle regeneration in muscle tissue.
In addition, the expression of MyHC was assessed at the protein level. […]

[3] = tested on: replicative senescence model of human umbilical cord-derived mesenchymal stem cells (P18); assay: β-galactosidase staining, extent of senescence, replicative senescence model (P18); type: cell-based; design: dose or concentration left out as unconfirmed
Method: Compared to the control cells (P5) in which the extent of senescence was 0.21 % of the total, the extent of senescence in the senescence-induced mesenchymal stem cells (P18) was increased to 42.44% of the total, confirming the progression of replicative senescence (FIGs. 1a and 1b). Specifically, individual cells (5×10^4/well) were suspended in a 6-well plate and stabilized for 24 hours, followed by adding β-galactosidase staining solution and staining for 24 hours, after which the extent of senescence was measured under a microscope.
Therefore, it was confirmed that this concentration was an optimal concentration that inhibited the extent of senescence by inducing apoptosis specifically in the replicative senescence model (P18) without affecting the cytotoxicity of the control cells (P5).

[4] = tested on: senescence markers P16 and P21; assay: Western blotting of P16 and P21 in replicative senescence model (P18); type: cell-based, human; conditions: 160 μM
Method: In order to verify the anti-senescence efficacy of nervonic acid, the expression levels of senescence-related markers in a control group (P5) and a replicative senescence model (P18) were measured after treatment with nervonic acid (160 μM).
Specifically, Western blotting performed in this example is as follows: cells were collected, and the cell membrane was broken using RIPA buffer, followed by centrifugation to collect the supernatant. Intracellular proteins were quantified using the Bradford assay (Bio-Rad, USA), and 20 μg of protein for each sample was loaded onto the gel, followed by electrophoresis using SDS. After transferring the protein to a polyvinylidene fluoride (PVDF) membrane, 1× TBST (Tris-buffered saline with 0.1% Tween 20) solution containing 5% skim milk (BD Difco, USA) was added and incubated at room temperature for 1 hour. Thereafter, P16 (1: 1000, Cell Signaling, USA), P21 (1: 1000, Cell Signaling, USA), and β-actin (1:5000; Santa Cruz, USA) antibodies were added and incubated overnight at 4° C. Then, the secondary antibody (anti-rabbit IgG-HRP; ABClon, Korea) was added and incubated at room temperature for one hour. Afterwards, the blots were visualized using ECL (Bio-Rad, USA) and assessed.

[5] = tested on: control cells (P5), human umbilical cord-derived mesenchymal stem cells; assay: Cell proliferation by CCK-8 assay, 6 days, control cells (P5); type: cell-based; conditions: 160 μM
Method: as §1, §2

[6] = tested on: Annexin V, an apoptosis marker, in muscle tissue; assay: Annexin V Western blotting in muscle tissue of muscle disease mouse model after injection of treated P18 cells; type: in vivo; conditions: P18 cells treated with 160 μM for 72 hours, 5×10^4 cells per mouse via tail vein, one week after injection
Method: A replicative senescence model (P18) was treated with nervonic acid (160 μM) and then injected into a muscle disease mouse model to assess the effect of nervonic acid treatment on the therapeutic efficacy of the replicative senescence model (P18) in terms of reducing apoptosis in muscle tissue.
as §3
In addition, the expression of Annexin V was assessed at the protein level. Specifically, the protein to be used in the experiment was extracted from muscle tissue. […]

[7] = tested on: human adipose-derived mesenchymal stem cells (AD-MSCs/passage 18); assay: β-galactosidase staining, senescent AD-MSCs; type: cell-based; conditions: AD-MSCs passage 18, 3 days
Description: Human placenta-derived mesenchymal stem cells (pl-mscs) Were Isolated From Placentas Separated according to the previously reported method of Choi et al. (PLOS ONE, (2017) 12 (2): e0172642), umbilical cord blood-derived mesenchymal stem cells (UCB-MSCs) were isolated from the umbilical cord blood separated according to the method of Kim et al. (FEBS Letters, (2010) 584:3601-3608), and adipose tissue-derived mesenchymal stem cells (AD-MSCs) were isolated from adipose tissue separated according to the previously reported method of Palumbo et al. (Int. J. Mol. Sci. (2018) 19:1987).
Each of the obtained mesenchymal stem cells was subcultured in aMEM (a-modified Minimum Essential Media) containing 10% fetal bovine serum (FBS) and 0.5% gentamicin (10 mg/ml).
The replicative senescence models of human adipose-derived mesenchymal stem cells (AD-MSCs/passage 18), human bone marrow-derived mesenchymal stem cells (BM-MSCs/passage 15), human umbilical cord blood-derived mesenchymal stem cells (UCB-MSCs/passage 16), and human placenta-derived mesenchymal stem cells (PL-MSCs/passage 18) established as described above were treated with nervonic acid for 3 days, and β-galactosidase staining was performed to observe the extent of senescence.

CCCCCCCC/C=C\CCCCCCCCCCCCCC(=O)O [nervonic acid]
cell proliferation [1]: proliferation was significantly reduced
MyHC protein expression level (Western blotting) compared to DMSO treatment group [2]: significantly increased
extent of senescence (β-galactosidase staining), fold decrease compared to before treatment [3]: 0.41±0.04 fold
P16 protein expression level, fold compared to before treatment [4]: 0.65±0.07 fold
P21 protein expression level, fold compared to before treatment ([4]; not significant): 0.82±0.07 fold
cell proliferation [5]: no change in proliferation
Annexin V protein expression (Western blotting), fold decrease compared to mdx control group [6]: 0.30±0.02 fold
progression of senescence (β-galactosidase staining) compared to control group (DMSO) [7]: progression of senescence was significantly inhibited
